Seven molecules from ChEMBL document CHEMBL1201862, “PubChem BioAssay data set” (2004) can be followed below.

Test systems include MOLT-4; MCF7; HT-29; IGROV-1; SK-MEL-5; K562; RPMI-8226; SNB-19; RXF 393; HCC 2998; HOP-62; SK-OV-3; OVCAR-3; NCI-H226; SF-268; SK-MEL-2; U-251; NCI-H23; LOX IMVI; COLO 205.
What all share (assay): growth of human tumour cells (NCI), 48 h

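Five concentrations, 48 hours, 96-well plates. The concentration for 50% growth inhibition is given as GI50.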 Active and inactive are the calls of the source. Cut-off read from the data, not from the text of the source: active = GI50 up to about 1.1 µM and inactive = higher.

Turning to `CCCC[C@H]1[C@@H](OCOc2ccccc2)COC(=O)N1[C@H](C)c1ccccc1`, the GI50 was 4.54 µM (inactive) with MOLT-4; 11.2 µM (inactive) in the test with MCF7; > 34.2 µM (inactive) in the test with HT-29; 14.7 µM (inactive) in the test with IGROV-1; 4.03 µM (inactive) in the test on SK-MEL-5; 7.18 µM (inactive) in the test with K562. In addition, the GI50 is 6.76 µM (inactive) in the test on RPMI-8226; 21.3 µM (inactive) in the test on SNB-19; 19 µM (inactive) in the test with RXF 393; 17.7 µM (inactive) in the test on HCC 2998; 13.8 µM (inactive) with HOP-62; 22.4 µM (inactive) in the test on SK-OV-3. Also, the GI50 is 14.7 µM (inactive) in the test with OVCAR-3; > 100 µM (inactive) in the test with NCI-H226; 16.6 µM (inactive) in the test with SF-268; 15.1 µM (inactive) in the test with SK-MEL-2; 14.7 µM (inactive) in the test with U-251; 18.2 µM (inactive) with NCI-H23. For the same molecule, the GI50 in the test on LOX IMVI is 20.8 µM (inactive); in the test with COLO 205, 25.9 µM (inactive).
As to `COc1cccc(N2C(=O)C3c4[nH]c5ccc(C)cc5c4C4CCC(C(C)(C)C)CC4C3C2=O)c1` (configuration not stated), the GI50 with MOLT-4 was 1.97 µM (inactive); in the test on MCF7, 2.99 µM (inactive); in the test with HT-29 it was 4.08 µM (inactive); in the test with IGROV-1, > 10 µM (inactive); in the test on SK-MEL-5, 7.67 µM (inactive); with K562, 2.65 µM (inactive). Also, the GI50 in the test with RPMI-8226 is 4.06 µM (inactive); with SNB-19 it was > 10 µM (inactive); in the test with RXF 393 it was 3.8 µM (inactive); in the test on HCC 2998 it was 4.11 µM (inactive); with HOP-62, > 10 µM (inactive); in the test on SK-OV-3, > 10 µM (inactive). Also, the GI50 in the test with OVCAR-3 is 5.46 µM (inactive); with NCI-H226, 3.01 µM (inactive); in the test with SF-268, 4.73 µM (inactive); with SK-MEL-2 it was > 10 µM (inactive); with U-251, 3.52 µM (inactive); with NCI-H23 it was 2.24 µM (inactive). In addition, the values for the GI50 in the test with LOX IMVI and in the test on COLO 205 were 2.43 µM (inactive) and 7.16 µM (inactive), respectively.
Turning to `COC1C(O)CC(OC2CC(Oc3cc4cc5c(c(O)c4c(O)c3C)C(=O)[C@@H](OC3CC(OC4CC(OC6CC(C)(O)C(OC(C)=O)C(C)O6)C(O)C(C)O4)C(O)C(C)O3)[C@H]([C@H](OC)C(=O)[C@@H](O)[C@@H](C)O)C5)OC(C)C2OC(C)=O)OC1C` (some centres not stated) [CHROMOMYCIN], the GI50 with MOLT-4 is < 0.01 µM (active); in the test with MCF7, 0.00312 µM (active); in the test with HT-29, < 0.01 µM (active); in the test with IGROV-1, 0.0101 µM (active); in the test on SK-MEL-5, < 0.01 µM (active); with K562, 0.00566 µM (active). In addition, the GI50 is < 0.01 µM (active) in the test on RPMI-8226; 0.00424 µM (active) with SNB-19; 0.00311 µM (active) in the test on RXF 393; < 0.01 µM (active) with HCC 2998; 0.00355 µM (active) in the test on HOP-62; 0.00673 µM (active) with SK-OV-3. For the same molecule, the GI50 with OVCAR-3 is < 0.01 µM (active); in the test with NCI-H226 it was < 0.01 µM (active); with SF-268 it was 0.00357 µM (active); in the test on SK-MEL-2, 0.00361 µM (active); in the test on U-251, 0.00344 µM (active); in the test with NCI-H23, < 0.01 µM (active). Also, the figures for the GI50 in the test on LOX IMVI and in the test on COLO 205 were 0.00348 µM (active) and < 0.01 µM (active), respectively.
In the case of `CC1=CC2c3cccc4[nH]cc(c34)CC2N(C)C1` (configuration not stated), the GI50 with MOLT-4 is > 68.1 µM (inactive); with MCF7, 95.1 µM (inactive); in the test on HT-29 it was 49.4 µM (inactive); with IGROV-1, > 100 µM (inactive); in the test on SK-MEL-5, > 76.9 µM (inactive); with K562 it was 32.7 µM (inactive). For the same molecule, the GI50 in the test with RPMI-8226 was > 100 µM (inactive); with SNB-19, > 100 µM (inactive); in the test on RXF 393 it was > 100 µM (inactive); in the test on HCC 2998, 25.5 µM (inactive); in the test with HOP-62 it was 15.8 µM (inactive); with SK-OV-3, > 100 µM (inactive). For the same molecule, the GI50 with OVCAR-3, in the test on NCI-H226, with SF-268, with SK-MEL-2, in the test on U-251 and in the test with NCI-H23 was > 100 µM (inactive) throughout. For the same molecule, the results for the GI50 with LOX IMVI and in the test on COLO 205 were 70.8 µM (inactive) and 55.6 µM (inactive), respectively.
In the case of `CC(/C=N/N=C(N)N)=N\N=C(N)N`, the GI50 with MOLT-4 is 9.25 µM (inactive); in the test on MCF7 it was 27.4 µM (inactive); with IGROV-1, 279 µM (inactive); with SK-MEL-5, 191 µM (inactive); in the test on K562 it was 8.73 µM (inactive); in the test with RPMI-8226, 12.1 µM (inactive). Also, the GI50 is 36.1 µM (inactive) in the test with SNB-19; 32.3 µM (inactive) with RXF 393; 5.57 µM (inactive) in the test with HCC 2998; 6.58 µM (inactive) in the test on HOP-62; 43.4 µM (inactive) in the test on SK-OV-3; 6.11 µM (inactive) in the test on OVCAR-3. The GI50 with NCI-H226 is 38.5 µM (inactive); in the test on SF-268 it was 3.56 µM (inactive); in the test on SK-MEL-2, 12.8 µM (inactive); with U-251, 18.5 µM (inactive); with NCI-H23, 18.5 µM (inactive); in the test on LOX IMVI, 4.18 µM (inactive). Besides, in the test on COLO 205, the GI50 is 3.02 µM (inactive).
`COc1cc([C@@H]2c3cc4c(c(O[C@@H]5O[C@H]6CO[C@@H](C)O[C@H]6[C@H](O)[C@@H]5O)c3C[C@H]3COC(=O)[C@@H]32)OCO4)cc(OC)c1O`: the GI50 with MOLT-4 was 10.6 µM (inactive); with MCF7, 4.15 µM (inactive); in the test with HT-29, 33.7 µM (inactive); in the test with IGROV-1, 8.61 µM (inactive); in the test on SK-MEL-5 it was 5.08 µM (inactive); with K562, 4.53 µM (inactive). In addition, the GI50 in the test with RPMI-8226 was 47.5 µM (inactive); in the test with SNB-19, 23.7 µM (inactive); in the test on RXF 393, 3.64 µM (inactive); in the test on HCC 2998 it was 26.9 µM (inactive); with HOP-62 it was 27.2 µM (inactive); with SK-OV-3, 19.6 µM (inactive). Besides, the GI50 with OVCAR-3 was 6.76 µM (inactive); in the test with NCI-H226, 3.75 µM (inactive); in the test on SK-MEL-2, 27.3 µM (inactive); in the test with U-251, 8.17 µM (inactive); with NCI-H23, 15.1 µM (inactive); with LOX IMVI, 4.73 µM (inactive). Further, the GI50 in the test on COLO 205 is 38.8 µM (inactive).
For `Cc1[nH]c(=O)[nH]c(=O)c1C(=O)N(CCO)Cc1ccccc1`, the GI50 was > 100 µM (inactive) in the test with MOLT-4; > 100 µM (inactive) in the test on MCF7; > 100 µM (inactive) with HT-29; 33 µM (inactive) with IGROV-1; > 100 µM (inactive) in the test with K562; > 100 µM (inactive) with RPMI-8226. The GI50 in the test on SNB-19 was > 100 µM (inactive); in the test on RXF 393 it was 30 µM (inactive); in the test on HCC 2998, > 100 µM (inactive); in the test on HOP-62, > 100 µM (inactive); in the test on SK-OV-3, > 100 µM (inactive); in the test on OVCAR-3, > 100 µM (inactive). Also, the GI50 with NCI-H226 is 17 µM (inactive); with SF-268, > 100 µM (inactive); in the test with SK-MEL-2 it was > 100 µM (inactive); with U-251, > 100 µM (inactive); in the test with NCI-H23, 33 µM (inactive); in the test with LOX IMVI it was > 100 µM (inactive). Besides, in the test on COLO 205, the GI50 was 22.3 µM (inactive).
